Among the data in ChEMBL document CHEMBL4483862, “Open-source discovery of chemical leads for next-generation chemoprotective antimalarials” (2018) are IC50 and IC90 values, retold here.

Each structure is given as a SMILES string.

In the experiment the test system is Plasmodium berghei. The experiment is described as follows: Luciferase/luciferin-expressing antifolate-resistant parasites were used to infect a culture of HepG2 cells that were pre-incubated with compounds. Infected hepatocytes emit light due to the luciferase reaction. Assay results are presented as the percent inhibition of light emission compared to control. […]. Format: functional. The note with it: sporozoite; for IC50: read-out: LUCIFERASE INFECTION ASSAY - IC50; for IC90: read-out: LUCIFERASE INFECTION ASSAY - IC90.

Broadly, the IC50 is the concentration that gives 50% inhibition. By IC90 is commonly meant the concentration at which the effect reaches the 90% level.

Regarding `CN1C(=O)Cc2cc(C3=NNC(=Nc4ccccc4F)SC3)ccc21`, the IC50 is greater than 10 µM and the IC90 was greater than 10 µM.
Take `O=C(COCc1nc2ccccc2s1)NCc1ccc(Cn2cccn2)cc1`: the IC50 was greater than 10 µM and the 90% effect concentration (IC90) is greater than 10 µM.
Regarding `CC(NC1CCCCCC1)C(=O)c1c[nH]c2ccccc12` (centres undefined), the IC50 is greater than 10 µM and the concentration for an effect of 90% (IC90) was greater than 10 µM.
Consider `CN(C)c1nc(N)nc(COC(=O)c2cccc(Br)c2)n1`, for which the IC50 was greater than 10 µM and the IC90 is greater than 10 µM.
Regarding `Cc1[nH]c2ccccc2c1-c1nc(Nc2ccc3c(c2)OCCO3)sc1C`, the half-inhibitory concentration (IC50) was greater than 10 µM and the IC90 was greater than 10 µM.
Take `O=C1NC(c2ccc(N3CCCCC3)cc2)Nc2ccccc21` (centres undefined): the IC50 turned out to be 0.0973 µM and the IC90 amounted to 0.743 µM.
Consider `Cc1c(Cl)c(CN2C(=O)C(=O)N(Cc3cccs3)C2=O)nc2ccccc12`, for which the IC50 is greater than 10 µM and the IC90 was greater than 10 µM.
In the case of `COc1ccc(C(CNC(=O)c2cc(Br)ccc2F)N(C)C)cc1` (centres undefined), the half-inhibitory concentration (IC50) was greater than 10 µM and the IC90 was greater than 10 µM.
For `CCOc1ccc(CN(CC)C(=O)c2ccc(=O)[nH]c2)cc1OC`, the IC50 is greater than 10 µM and the IC90 is greater than 10 µM.
Consider `Cc1cc(C)n(CC(=O)n2cc(C(=O)c3cc(F)ccc3O)cn2)n1`, for which the half-maximal inhibitory concentration (IC50) is greater than 10 µM and the IC90 was greater than 10 µM.
Turning to `Clc1ccc2c(N(Cc3ccco3)Cc3cccs3)ncnc2c1`, the IC50 was greater than 10 µM and the IC90 was greater than 10 µM.
For the compound `Cc1oc(-n2cccc2)c(C#N)c1C(=O)Nc1ccn(C)n1`, the IC50 is greater than 10 µM and the IC90 is greater than 10 µM.
Take `CN(C)C(CNC(=O)c1ccc(NC(=O)OC(C)(C)C)cc1)c1cccs1` (centres undefined): the 50% inhibitory concentration (IC50) is greater than 10 µM and the concentration for an effect of 90% (IC90) was greater than 10 µM.
As for `COc1ccc(OCCn2nc(-c3cccs3)c3ccccc3c2=O)cc1`, the 50% inhibitory concentration (IC50) was found to be 3.71 µM and the IC90 is greater than 10 µM.
The like results for `O=C(OCc1cc(=O)n2cc(Br)ccc2n1)C1(c2ccccc2)CC1` were, in that order, greater than 10 µM and greater than 10 µM.
The like results for `Cc1cc(C)cc(NC(=O)C(Sc2nc(=O)cc(N)[nH]2)c2ccccc2)c1` (centres undefined) were, in that order, greater than 10 µM and greater than 10 µM.
As for `Cc1nc2ncnn2c(C)c1CC(=O)NCCCSc1ccc(F)cc1`, the IC50 was greater than 10 µM and the IC90 was greater than 10 µM.
For the compound `O=C(Cc1noc2ccccc12)N1CCN(c2ccc(C(F)(F)F)cn2)CC1`, the concentration for half-maximal inhibition (IC50) was greater than 10 µM and the IC90 is greater than 10 µM.
As for `CCCc1ccc(-c2nc(NC(=O)CCc3ccsc3)sc2C)cc1`, the half-inhibitory concentration (IC50) was greater than 10 µM and the IC90 was greater than 10 µM.
Take `CN(Cc1nc2ccccc2s1)C(=O)c1cccc(C#N)c1`: the concentration for half-maximal inhibition (IC50) was greater than 10 µM and the IC90 was greater than 10 µM.
As for `O=C(c1cc(-c2ccccc2)n[nH]1)N1CCN(c2ccccc2F)CC1`, the IC50 is greater than 10 µM and the IC90 was greater than 10 µM.
For `CC(NC(=O)Cn1c2ccccc2c(=O)c2ccccc21)c1cc2ccccc2o1` (centres undefined), the IC50 was 6.06 µM and the concentration for an effect of 90% (IC90) was greater than 10 µM.
Taken in the same sequence, the figures for `CC(=O)NCCc1ccc(C(=O)Cn2cnc3ccc(Cl)cc3c2=O)s1` were greater than 10 µM and greater than 10 µM.
`O=C(CCc1cccnc1)Nc1ccc(OC(F)(F)F)cc1`: the half-maximal inhibitory concentration (IC50) was greater than 10 µM and the concentration for an effect of 90% (IC90) was greater than 10 µM.
For `Cc1ccc(C)c(NC(=O)CN(C)C(=O)CN2CCN(c3ccccc3)CC2)c1`, the half-inhibitory concentration (IC50) was greater than 10 µM and the IC90 was greater than 10 µM.
On to `CCCN(CC(=O)Nc1ccccc1C)C(=O)Cn1nnc2ccccc21`, for which the IC50 is greater than 10 µM and the IC90 is greater than 10 µM.
Consider `Cc1nc(-c2ccccc2)sc1C(=O)OC(C)C(=O)N1CCNC1=O` (centres undefined), for which the IC50 was greater than 10 µM and the concentration for an effect of 90% (IC90) is greater than 10 µM.
As to `Cc1nn(C)c2sc(C(=O)N(C)c3nc4ccccc4s3)cc12`, the IC50 was greater than 10 µM and the IC90 was greater than 10 µM.
Consider `O=C(c1cnc2nc(N3CCCCC3)sc2c1)c1ccccc1O`, for which the IC50 worked out at 6.09 µM and the IC90 is greater than 10 µM.
On to `COC(=O)c1ccccc1N(C)S(=O)(=O)c1ccc(Cl)cc1F`, for which the half-maximal inhibitory concentration (IC50) was greater than 10 µM and the concentration for an effect of 90% (IC90) is greater than 10 µM.
As to `CCCNC(=O)COC(=O)c1cc(Br)ccc1N`, the half-inhibitory concentration (IC50) is greater than 10 µM and the IC90 is greater than 10 µM.
`COC(=O)c1ccc(S(=O)(=O)N2c3ccccc3CCC2C)cc1` (centres undefined): the 50% inhibitory concentration (IC50) is greater than 10 µM and the 90% effect concentration (IC90) was greater than 10 µM.
Consider `CN(Cc1ccc(OCc2ccc(Cl)cc2)cc1)C(=O)c1cnn(C)c1`, for which the 50% inhibitory concentration (IC50) is greater than 10 µM and the IC90 was greater than 10 µM.
As to `CC1C(=O)N(Cc2ncc(-c3ccccc3)o2)C(=O)N1c1ccc(F)cc1` (centres undefined), the concentration for half-maximal inhibition (IC50) is 9.72 µM and the IC90 was greater than 10 µM.
As for `O=C(Nc1ccc(-c2csc(N3CCOCC3)n2)cc1)c1cccc(F)c1`, the 50% inhibitory concentration (IC50) was greater than 10 µM and the IC90 was greater than 10 µM.
Take `CCOc1ccccc1CCC(=O)NCc1ccc(CS(N)(=O)=O)cc1`: the half-inhibitory concentration (IC50) is greater than 10 µM and the IC90 is greater than 10 µM.
`COc1ccc(C)cc1C(C)NC(=O)c1cnn(Cc2ccccc2)c1` (centres undefined): the concentration for half-maximal inhibition (IC50) is greater than 10 µM and the IC90 is greater than 10 µM.
For the compound `CN(Cc1ccccc1N1CCCCC1)C(=O)c1ccc(NC(=O)C2CC2)s1`, the concentration for half-maximal inhibition (IC50) was greater than 10 µM and the IC90 was greater than 10 µM.
For `O=C(Nc1ccc(CNC(=O)C2Cc3cc(Cl)ccc3O2)cc1)c1ccco1` (centres undefined), the concentration for half-maximal inhibition (IC50) was greater than 10 µM and the IC90 is greater than 10 µM.
For the compound `CSc1nc2ccc(NC(=O)c3[nH]c4c(c3C)C(=O)CCC4)cc2s1`, the IC50 was greater than 10 µM and the IC90 is greater than 10 µM.
In the case of `CCNC(=O)c1cccc(Nc2nc(C(F)(F)F)nc3ccccc23)c1`, the IC50 was greater than 10 µM and the concentration for an effect of 90% (IC90) was greater than 10 µM.
Turning to `Cc1c(-n2nnnc2SCC(C)C)c(=O)n(-c2ccccc2)n1C`, the IC50 is greater than 10 µM and the IC90 was greater than 10 µM.
With `COc1ccc(C)cc1NC(=O)CN(Cc1ccc2c(c1)OCO2)C1CCCC1`, the IC50 was greater than 10 µM and the IC90 was greater than 10 µM.
With `Cc1cc(C)c(SC(C)C(=O)NC(N)=O)c(C)c1` (centres undefined), the IC50 was greater than 10 µM and the IC90 was greater than 10 µM.
Regarding `COc1ccc(C(NC(=O)c2ccc(-n3cccc3)cc2)c2nccn2C)cc1` (centres undefined), the IC50 is greater than 10 µM and the 90% effect concentration (IC90) is greater than 10 µM.
For `C=CCN(C(=O)c1ccccc1Br)c1nc2ccccc2s1`, the half-maximal inhibitory concentration (IC50) was greater than 10 µM and the IC90 is greater than 10 µM.
Take `C1=C(c2nc3ccccc3[nH]2)C(c2ccccc2)=NNC1c1ccccc1` (centres undefined): the IC50 worked out at 9.97 µM and the IC90 was greater than 10 µM.
`Cc1cc(C(=O)COC(=O)c2ccc(Cl)cc2N)c(C)n1CC1CCCO1` (centres undefined): the IC50 is greater than 10 µM and the 90% effect concentration (IC90) was greater than 10 µM.
Regarding `CN(C)S(=O)(=O)c1ccc(N2CCCC2)c(C(=O)N2CCCC2)c1`, the IC50 was greater than 10 µM and the concentration for an effect of 90% (IC90) is greater than 10 µM.
`Cc1ccc(-n2nnnc2SCc2nc(-c3ccc(C)c(F)c3)no2)c(C)c1`: the 50% inhibitory concentration (IC50) is greater than 10 µM and the IC90 is greater than 10 µM.
Take `Cc1ccc2cc(CN3CCCCC3C(N)=O)c(Cl)nc2c1C` (centres undefined): the IC50 was greater than 10 µM and the IC90 was greater than 10 µM.
As for `O=C(CCCNC(=O)c1ccsc1)Nc1ccc(OC(F)(F)F)cc1`, the IC50 was greater than 10 µM and the IC90 is greater than 10 µM.
Consider `Cc1cc(C)n(CCCNC(=O)Cc2c(C)nc3ncnn3c2C)n1`, for which the IC50 was greater than 10 µM and the 90% effect concentration (IC90) is greater than 10 µM.
In the case of `Cc1ccc(C)c(NC(=O)CN(C)C(=O)CN(C)C(C)c2ccccc2)c1` (centres undefined), the IC50 is greater than 10 µM and the IC90 is greater than 10 µM.
For `N#Cc1cccc(NC(=O)CNc2cc(C(F)(F)F)ccc2N2CCCC2)c1`, the IC50 is greater than 10 µM and the concentration for an effect of 90% (IC90) is greater than 10 µM.
On to `O=C(Cc1nc(=O)c2c3c(sc2[nH]1)CCCC3)c1c[nH]c2ccccc12`, for which the IC50 is greater than 10 µM and the 90% effect concentration (IC90) is greater than 10 µM.
Regarding `CN(C)C(=O)CNC(=O)c1ccc(C(F)(F)F)cc1`, the IC50 is greater than 10 µM and the IC90 is greater than 10 µM.
Take `c1ccc(-c2nnc(SCc3cn4ccccc4n3)nc2-c2ccccc2)cc1`: the IC50 was greater than 10 µM and the 90% effect concentration (IC90) is greater than 10 µM.
With `Cc1cc(-c2nc(C)sc2CC(=O)O)c(C)s1`, the IC50 is greater than 10 µM and the IC90 is greater than 10 µM.
With `CC(C)Cn1c(SC2CCOC2=O)nc2cc(Cl)ccc2c1=O` (centres undefined), the 50% inhibitory concentration (IC50) is greater than 10 µM and the IC90 was greater than 10 µM.
For the compound `CNC(=O)c1ccc(S(=O)(=O)Nc2cccc(-c3nnnn3C)c2)cc1`, the IC50 was greater than 10 µM and the IC90 is greater than 10 µM.
Regarding `O=C(c1ccc(-c2ccc3c(c2)OCCO3)s1)N1CCc2ccccc21`, the IC50 is greater than 10 µM and the IC90 is greater than 10 µM.
On to `O=C(c1c[nH]nc1-c1ccccc1)N1CCN(S(=O)(=O)c2ccccc2)CC1`, for which the IC50 is greater than 10 µM and the IC90 is greater than 10 µM.
Regarding `CCC1c2ccsc2CCN1Cc1cc(=O)n2cc(Cl)ccc2n1` (centres undefined), the IC50 is greater than 10 µM and the IC90 is greater than 10 µM.
Consider `CC(=O)NCc1ccc(-c2csc(NC(=O)CCc3ccco3)n2)cc1`, for which the IC50 was greater than 10 µM and the IC90 was greater than 10 µM.
Take `O=C(Nc1ccccc1)c1ccc(CN2CCCC(C(F)(F)F)C2)cc1` (centres undefined): the concentration for half-maximal inhibition (IC50) was 2.2 µM and the IC90 stood at 8.25 µM.
Consider `COc1ccc2cc(CN(C)C(=O)c3cnn(Cc4ccccc4)c3)ccc2c1`, for which the concentration for half-maximal inhibition (IC50) worked out at 2.85 µM and the IC90 is greater than 10 µM.
Regarding `CCOC(=O)c1ccc(OC(C)C(=O)NC2CCCC(C)C2C)cc1` (centres undefined), the IC50 was greater than 10 µM and the 90% effect concentration (IC90) was greater than 10 µM.
For the compound `CCCOc1ccccc1NC(=O)COc1nnc2ccccn12`, the IC50 is greater than 10 µM and the concentration for an effect of 90% (IC90) was greater than 10 µM.
In the case of `CC(=O)c1c(F)cccc1N1CCC(c2nc3ccccc3[nH]2)CC1`, the half-maximal inhibitory concentration (IC50) amounted to 2.87 µM and the 90% effect concentration (IC90) is 5.87 µM.
`COc1ccc(S(=O)(=O)N2CCN(CC(=O)N3CCCCCC3)CC2)cc1`: the IC50 is greater than 10 µM and the IC90 was greater than 10 µM.
For the compound `COc1cc(/C=C2\C=c3ccccc3=C2O)cc(Cl)c1OC(C)C`, the IC50 was greater than 10 µM and the IC90 was greater than 10 µM.
